The supplement of paper PMC10307832

Key:
Assay in all cases: relative viability (nuclei count vs DMSO), 5 days (fraction); higher = more cells survive
Vismodegib + Pemetrexed = compound: CS(=O)(=O)c1ccc(C(=O)Nc2ccc(Cl)c(-c3ccccn3)c2)c(Cl)c1 [Vismodegib] + Nc1nc2[nH]cc(CCc3ccc(C(=O)N[C@@H](CCC(=O)O)C(=O)O)cc3)c2c(=O)[nH]1 [Pemetrexed] (partner 0.2 µM)
How it was run: (§1)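 One day after seeding in 1536-well plates, lung cancer cell lines were dosed by pin tool. Dosing was either single-drug or a fixed anchor-drug dose plus five library-drug doses (not always all listed) in √10 steps. After 5 days, nuclei were stained in one fix-and-stain step and counted on 4× images, and relative viability is the nuclei count of treated wells over that of vehicle wells, given as the median of duplicate plates.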

Vismodegib + Lapatinib = compound: CS(=O)(=O)c1ccc(C(=O)Nc2ccc(Cl)c(-c3ccccn3)c2)c(Cl)c1 [Vismodegib] + CS(=O)(=O)CCNCc1ccc(-c2ccc3ncnc(Nc4ccc(OCc5cccc(F)c5)c(Cl)c4)c3c2)o1 [Lapatinib] (partner 2 µM)
How it was run: as §1

Ruxolitinib + Navitoclax = compound: N#CC[C@H](C1CCCC1)n1cc(-c2ncnc3[nH]ccc23)cn1 [Ruxolitinib] + CC1(C)CCC(c2ccc(Cl)cc2)=C(CN2CCN(c3ccc(C(=O)NS(=O)(=O)c4ccc(N[C@H](CCN5CCOCC5)CSc5ccccc5)c(S(=O)(=O)C(F)(F)F)c4)cc3)CC2)C1 [Navitoclax] (partner 0.5 µM)
How it was run: as §1

VE-821 + Bortezomib = compound: CS(=O)(=O)c1ccc(-c2cnc(N)c(C(=O)Nc3ccccc3)n2)cc1 [VE-821] + CC(C)C[C@H](NC(=O)[C@H](Cc1ccccc1)NC(=O)c1cnccn1)B(O)O [Bortezomib] (partner 0.002 µM)
How it was run: as §1

What does the source list for UMC-11?
relative viability (Vismodegib + Pemetrexed; first compound 0.08 µM): 0.61; relative viability (Vismodegib + Pemetrexed; first compound 0.253 µM): 0.807; relative viability (Vismodegib + Pemetrexed; first compound 0.8 µM): 0.768; relative viability (Vismodegib + Pemetrexed; first compound 2.53 µM): 0.739; relative viability (Vismodegib + Pemetrexed; first compound 8 µM): 0.868; relative viability (Vismodegib + Lapatinib; first compound 0.08 µM): 0.915; relative viability (Vismodegib + Lapatinib; first compound 0.253 µM): 0.971; relative viability (Vismodegib + Lapatinib; first compound 0.8 µM): 0.893; relative viability (Vismodegib + Lapatinib; first compound 2.53 µM): 0.974; relative viability (Vismodegib + Lapatinib; first compound 8 µM): 0.598; relative viability (Ruxolitinib + Navitoclax; first compound 0.08 µM): 0.3; relative viability (Ruxolitinib + Navitoclax; first compound 0.253 µM): 0.302; relative viability (Ruxolitinib + Navitoclax; first compound 0.8 µM): 0.388; relative viability (Ruxolitinib + Navitoclax; first compound 2.53 µM): 0.352; relative viability (Ruxolitinib + Navitoclax; first compound 8 µM): 0.288; relative viability (VE-821 + Bortezomib; first compound 0.08 µM): 0.873; relative viability (VE-821 + Bortezomib; first compound 0.253 µM): 0.707; relative viability (VE-821 + Bortezomib; first compound 0.8 µM): 0.794; relative viability (VE-821 + Bortezomib; first compound 2.53 µM): 0.789; relative viability (VE-821 + Bortezomib; first compound 8 µM): 0.641
